Assay results from PubChem BioAssay AID1963872 (Molecular Pharmacology Branch, DTP, NCI, 2024).

Test system: KRAS patient-derived spheroids with HUVEC/MSC, viability
Test: Anticancer human tumor 519858-162-T-J1-PDC patient-derived colon adenocarcinoma cell line growth inhibition [KRAS2]
Conditions: for IC50: curve of first compound; for viability, T/C: stronger effect = lower value
Procedure, shortened: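 KRAS-mutant tumor cells were grown as spheroids with HUVEC endothelial cells and human MSCs as stroma. Targeted agents were tested alone and with KRAS pathway inhibitors. Doses started at or near clinical Cmax, or 10 microM, descending half-log.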

[1] = second compound 0.1 µM, first compound 0.0316 µM
[2] = second compound 0.316 µM, first compound 0.0316 µM
[3] = second compound 1 µM, first compound 0.0316 µM
[4] = second compound 3.16 µM, first compound 0.0316 µM
[5] = second compound 0.1 µM, first compound 0.1 µM
[6] = second compound 0.1 µM, first compound 0.316 µM
[7] = second compound 0.1 µM, first compound 1 µM
[8] = second compound 0.1 µM, first compound 3.16 µM
[9] = second compound 0.1 µM, first compound 10 µM
[10] = second compound 0.316 µM, first compound 0.1 µM
[11] = second compound 0.316 µM, first compound 0.316 µM
[12] = second compound 0.316 µM, first compound 1 µM
[13] = second compound 0.316 µM, first compound 3.16 µM
[14] = second compound 0.316 µM, first compound 10 µM
[15] = second compound 1 µM, first compound 0.1 µM
[16] = second compound 1 µM, first compound 0.316 µM
[17] = second compound 1 µM, first compound 1 µM
[18] = second compound 1 µM, first compound 3.16 µM
[19] = second compound 1 µM, first compound 10 µM
[20] = second compound 3.16 µM, first compound 0.1 µM
[21] = second compound 3.16 µM, first compound 0.316 µM
[22] = second compound 3.16 µM, first compound 1 µM
[23] = second compound 3.16 µM, first compound 3.16 µM
[24] = second compound 3.16 µM, first compound 10 µM
[25] = second compound 10 µM, first compound 0.0316 µM
[26] = second compound 10 µM, first compound 0.1 µM
[27] = second compound 10 µM, first compound 0.316 µM
[28] = second compound 10 µM, first compound 1 µM
[29] = second compound 10 µM, first compound 3.16 µM
[30] = second compound 10 µM, first compound 10 µM
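Further: compound exposure lasted seven days before readout.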
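Wherever viability, T/C is given: 100% = DMSO vehicle control viability.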

For `CC(=O)Nc1cccc(-n2c(=O)n(C3CC3)c(=O)c3c(Nc4ccc(I)cc4F)n(C)c(=O)c(C)c32)c1` + C=CC(=O)N1CCN(c2nc(OCC3CCCN3C)nc3c2CCN(c2cccc4cccc(C)c24)C3)CC1CC#N, the IC50 (second compound 0.0316 µM) was 0.00355 µM, the IC50 (second compound 0.1 µM) was 0.00597 µM and the IC50 (second compound 0.316 µM) was 0.00447 µM. For the same molecule, the IC50 (second compound 1 µM) was 0.000581 µM, the IC50 (second compound 3.16 µM) was 0.000786 µM and the viability, T/C (second compound 0.0316 µM, first compound 0.0001 µM) was 90.6%. For the same molecule, the viability, T/C (second compound 0.0316 µM, first compound 0.000316 µM) was 76%, the viability, T/C (second compound 0.0316 µM, first compound 0.001 µM) was 65.5% and the viability, T/C (second compound 0.0316 µM, first compound 0.00316 µM) was 57.8%. The viability, T/C (second compound 0.0316 µM, first compound 0.01 µM) was 29.8%, the viability, T/C (second compound 0.0316 µM, first compound 0.0316 µM) was 19.4% and the viability, T/C (second compound 0.1 µM, first compound 0.0001 µM) was 59.7%. It also gave a viability, T/C (second compound 0.1 µM, first compound 0.000316 µM) of 62.1%, a viability, T/C (second compound 0.1 µM, first compound 0.001 µM) of 75.4% and a viability, T/C (second compound 0.1 µM, first compound 0.00316 µM) of 63.7%. It also gave a viability, T/C (second compound 0.1 µM, first compound 0.01 µM) of 38.5%, a viability, T/C [1] of 14.6% and a viability, T/C (second compound 0.316 µM, first compound 0.0001 µM) of 80%. For the same molecule, the viability, T/C (second compound 0.316 µM, first compound 0.000316 µM) was 64%, the viability, T/C (second compound 0.316 µM, first compound 0.001 µM) was 82.4% and the viability, T/C (second compound 0.316 µM, first compound 0.00316 µM) was 58.1%. For the same molecule, the viability, T/C (second compound 0.316 µM, first compound 0.01 µM) was 28.2%, the viability, T/C [2] was 17.5% and the viability, T/C (second compound 1 µM, first compound 0.0001 µM) was 63.1%. The viability, T/C (second compound 1 µM, first compound 0.000316 µM) was 42.1%, the viability, T/C (second compound 1 µM, first compound 0.001 µM) was 49.9% and the viability, T/C (second compound 1 µM, first compound 0.00316 µM) was 40%. For the same molecule, the viability, T/C (second compound 1 µM, first compound 0.01 µM) was 31%, the viability, T/C [3] was 11.4% and the viability, T/C (second compound 3.16 µM, first compound 0.0001 µM) was 73.5%. The viability, T/C (second compound 3.16 µM, first compound 0.000316 µM) was 59.1%, the viability, T/C (second compound 3.16 µM, first compound 0.001 µM) was 41% and the viability, T/C (second compound 3.16 µM, first compound 0.00316 µM) was 44%. For the same molecule, the viability, T/C (second compound 3.16 µM, first compound 0.01 µM) was 16.7% and the viability, T/C [4] was 7.17%.
Work on `COc1cc2nccc(Oc3ccc(NC(=O)C4(C(=O)Nc5ccc(F)cc5)CC4)cc3)c2cc1OC` + CC1OCC2(CCN(c3cnc(Sc4ccnc(N)c4Cl)c(N)n3)CC2)C1N yielded an IC50 (second compound 0.1 µM) greater than 10 µM, an IC50 (second compound 0.316 µM) greater than 10 µM and an IC50 (second compound 1 µM) greater than 10 µM. It also gave an IC50 (second compound 3.16 µM) greater than 10 µM, an IC50 (second compound 10 µM) greater than 10 µM and a viability, T/C [1] of 68.4%. It also gave a viability, T/C [5] of 72.7%, a viability, T/C [6] of 83.2% and a viability, T/C [7] of 84.7%. For the same molecule, the viability, T/C [8] was 94%, the viability, T/C [9] was 130% and the viability, T/C [2] was 64.3%. It also gave a viability, T/C [10] of 62.7%, a viability, T/C [11] of 78.9% and a viability, T/C [12] of 92.6%. It also gave a viability, T/C [13] of 150%, a viability, T/C [14] of 96.4% and a viability, T/C [3] of 64.4%. It also gave a viability, T/C [15] of 74.4%, a viability, T/C [16] of 90% and a viability, T/C [17] of 93.1%. For the same molecule, the viability, T/C [18] was 143%, the viability, T/C [19] was 85.8% and the viability, T/C [4] was 57.9%. For the same molecule, the viability, T/C [20] was 68.1%, the viability, T/C [21] was 88.5% and the viability, T/C [22] was 71.9%. It also gave a viability, T/C [23] of 80.7%, a viability, T/C [24] of 99.4% and a viability, T/C [25] of 78.2%. The viability, T/C [26] was 92.5%, the viability, T/C [27] was 110% and the viability, T/C [28] was 103%. The viability, T/C [29] was 107% and the viability, T/C [30] was 70.6%.
`COc1cc2nccc(Oc3ccc(NC(=O)C4(C(=O)Nc5ccc(F)cc5)CC4)cc3)c2cc1OC` + COc1cc2nc(C)nc(NC(C)c3cc(N)cc(C(F)(F)F)c3)c2cc1OC1CCOC1 gave an IC50 (second compound 0.1 µM) greater than 10 µM, an IC50 (second compound 0.316 µM) greater than 10 µM and an IC50 (second compound 1 µM) greater than 10 µM. For the same molecule, the IC50 (second compound 3.16 µM) was greater than 10 µM, the IC50 (second compound 10 µM) was 2.33 µM and the viability, T/C [1] was 73.8%. For the same molecule, the viability, T/C [5] was 73.3%, the viability, T/C [6] was 57% and the viability, T/C [7] was 107%. For the same molecule, the viability, T/C [8] was 129%, the viability, T/C [9] was 99.9% and the viability, T/C [2] was 84.5%. It also gave a viability, T/C [10] of 82%, a viability, T/C [11] of 72.5% and a viability, T/C [12] of 85.7%. It also gave a viability, T/C [13] of 95.5%, a viability, T/C [14] of 64% and a viability, T/C [3] of 55.7%. The viability, T/C [15] was 73.4%, the viability, T/C [16] was 71.6% and the viability, T/C [17] was 98%. It also gave a viability, T/C [18] of 112%, a viability, T/C [19] of 68.9% and a viability, T/C [4] of 75%. It also gave a viability, T/C [20] of 76.8%, a viability, T/C [21] of 77.9% and a viability, T/C [22] of 79.4%. It also gave a viability, T/C [23] of 41.2%, a viability, T/C [24] of 82% and a viability, T/C [25] of 66.6%. For the same molecule, the viability, T/C [26] was 76.5%, the viability, T/C [27] was 65.3% and the viability, T/C [28] was 97.1%. The viability, T/C [29] was 1.79% and the viability, T/C [30] was 79.3%.
